In patent US20150306110A1, “COMPOSITIONS AND METHODS FOR TREATMENT OF INFLAMMATION AND HYPERKERATOTIC LESIONS” (Novelix Pharmaceuticals, Inc., priority 2008, published 2015):

Assays:
[1] = tested on: melanoma, liposarcoma, colon-and lung cancer cells; experiment: Cell growth in select cancer cell lines, NVX-207 compared to betulinic acid (FIGS. 1A-D); type: cell-based; conditions: various cancer and non-cancer cells, human and animal cell lines
Protocol: FIGS. 1A-D show cell survival in select human cancer cell lines: 518A2 melanoma (FIG. 1A), SW872 liposarcoma (FIG. 1B), Caco-2 colon carcinoma (FIG. 1C) and A549 lung carcinoma (FIG. 1D). Cell survival as a percentage of untreated controls (y-axis) in response to NVX-207 (grey lines) or betulinic acid (black lines) in μg/ml (x-axis) are shown.
(§1) Melanoma cell lines used in this study were maintained in Dulbecco's modified Eagle medium (DMEM with 4500 mg/l glucose) supplemented with 10% FCS from Gibco BRL (Life Technologies, Berlin, Germany). The canine mastocytoma cell line C2 (DeVinney et al, Am. J. Respir. Cell Mol. Biol. 3:413-20, 1990) was used in this study, along with additional human cell lines: RD-ES and TC-71 (human Ewing's sarcoma), SAOS2 (human osteosarcoma), HT-1080 (human fibrosarcoma), Caco-2 (human colon adenocarcinoma), A549 (human lung adenocarcinoma), Hep-G2 and Hep-3B (human hepatocellular carcinoma), SK-N-DZ and SK-N-FI (human embryonal neuroblastoma), HTB9 (human bladder cancer), MDA-468 and MCF-7 (human breast cancer) and SW872 liposarcoma. […]
(§2) Briefly, cells were maintained in standard medium, harvested, and plated at equal densities (750,000 cells in 5 cm tissue culture dishes). […] For the assessment of cell growth, the number of surviving cells was determined using an automated cell counter from Beckman Coulter GmbH (Krefeld, Germany). […]

Hep-G2 = experiment: Cell growth/survival, Hep-G2 hepatocellular carcinoma cells; type: cell-based; conditions: Homo sapiens, HepG2, TP53 neg.
Protocol: as §1, with “liposarcoma. All breast cancer cells were routinely cultured in DMEM/F-12 or in DMEM alone supplemented with 10% FCS at 37° C. in a humidified 5% CO2 atmosphere. RD-ES and TC-71 sarcoma cell lines were maintained in RPMI 1640 (Biochrom KG, Berlin, Germany) containing 10% FCS at 37° C. in a humidified 5% CO2 atmosphere.” for “liposarcoma.”
as §2

SW872 (liposarcoma) = experiment: Cell growth/survival, SW872 liposarcoma cells; type: cell-based; conditions: Homo sapiens, TP53 mut.
Protocol: as §1, with “liposarcoma. All breast cancer cells were routinely cultured in DMEM/F-12 or in DMEM alone supplemented with 10% FCS at 37° C. in a humidified 5% CO2 atmosphere. RD-ES and TC-71 sarcoma cell lines were maintained in RPMI 1640 (Biochrom KG, Berlin, Germany) containing 10% FCS at 37° C. in a humidified 5% CO2 atmosphere.” for “liposarcoma.”
as §2

Caco-2 = experiment: Cell growth/survival, Caco-2 colon adenocarcinoma cells; type: cell-based; conditions: Homo sapiens, TP53 neg.
Protocol: as §1, with “liposarcoma. All breast cancer cells were routinely cultured in DMEM/F-12 or in DMEM alone supplemented with 10% FCS at 37° C. in a humidified 5% CO2 atmosphere. RD-ES and TC-71 sarcoma cell lines were maintained in RPMI 1640 (Biochrom KG, Berlin, Germany) containing 10% FCS at 37° C. in a humidified 5% CO2 atmosphere.” for “liposarcoma.”
as §2

HAT 1080 (fibrosarcoma) = experiment: Cell growth/survival, HAT 1080 fibrosarcoma cells; type: cell-based; conditions: Homo sapiens, TP53 mut.
Protocol: as §1, with “liposarcoma. All breast cancer cells were routinely cultured in DMEM/F-12 or in DMEM alone supplemented with 10% FCS at 37° C. in a humidified 5% CO2 atmosphere. RD-ES and TC-71 sarcoma cell lines were maintained in RPMI 1640 (Biochrom KG, Berlin, Germany) containing 10% FCS at 37° C. in a humidified 5% CO2 atmosphere.” for “liposarcoma.”
as §2

SK-N-FI = experiment: Cell growth/survival, SK-N-FI neuronal cancer cells; type: cell-based; conditions: Homo sapiens, TP53 mut.
Protocol: as §1, with “liposarcoma. All breast cancer cells were routinely cultured in DMEM/F-12 or in DMEM alone supplemented with 10% FCS at 37° C. in a humidified 5% CO2 atmosphere. RD-ES and TC-71 sarcoma cell lines were maintained in RPMI 1640 (Biochrom KG, Berlin, Germany) containing 10% FCS at 37° C. in a humidified 5% CO2 atmosphere.” for “liposarcoma.”
as §2

A549 = experiment: Cell growth/survival, A549 lung adenocarcinoma cells; type: cell-based; conditions: Homo sapiens, TP53 neg.
Protocol: as §1, with “liposarcoma. All breast cancer cells were routinely cultured in DMEM/F-12 or in DMEM alone supplemented with 10% FCS at 37° C. in a humidified 5% CO2 atmosphere. RD-ES and TC-71 sarcoma cell lines were maintained in RPMI 1640 (Biochrom KG, Berlin, Germany) containing 10% FCS at 37° C. in a humidified 5% CO2 atmosphere.” for “liposarcoma.”
as §2

SK-N-DZ = experiment: Cell growth/survival, SK-N-DZ neuronal cancer cells; type: cell-based; conditions: Homo sapiens, TP53 mut.
Protocol: as §1, with “liposarcoma. All breast cancer cells were routinely cultured in DMEM/F-12 or in DMEM alone supplemented with 10% FCS at 37° C. in a humidified 5% CO2 atmosphere. RD-ES and TC-71 sarcoma cell lines were maintained in RPMI 1640 (Biochrom KG, Berlin, Germany) containing 10% FCS at 37° C. in a humidified 5% CO2 atmosphere.” for “liposarcoma.”
as §2

pigs = conditions: pig, in vivo
MCF-7 = experiment: Cell growth/survival, MCF-7 breast cancer cells; type: cell-based; conditions: Homo sapiens, MCF7, TP53 neg.
Protocol: as §1, with “liposarcoma. All breast cancer cells were routinely cultured in DMEM/F-12 or in DMEM alone supplemented with 10% FCS at 37° C. in a humidified 5% CO2 atmosphere. RD-ES and TC-71 sarcoma cell lines were maintained in RPMI 1640 (Biochrom KG, Berlin, Germany) containing 10% FCS at 37° C. in a humidified 5% CO2 atmosphere.” for “liposarcoma.”
as §2

[2] = tested on: canine mammary carcinoma, scent gland carcinoma, soft tissue sarcoma; experiment: Activity of NVX-207 in additional canine cancer patients (summary); conditions: dog, in vivo
Source text: Overall survival time is given in months.

Soft tissue sarcoma = experiment: Intra-tumoral NVX-207 in canine patient, soft tissue sarcoma; conditions: Patient #1, 11, F; 48 treatment cycles
GOTO (autonomic ganglia) = experiment: Cell growth/survival, GOTO neuronal cancer cells; type: cell-based; conditions: Homo sapiens, TP53 neg.
[3] = tested on: hyperkeratotic palpable lesion with inflammatory components; experiment: Topical treatment of human hyperkeratotic lesions with inflammatory components; type: in vivo; conditions: 1% topical solution
Protocol: A 1% topical solution of NVX-207 (20% ethanol, 20% Tween® 80 and 80% water) was applied to human skin to treat a treatment resistant hyperkeratotic palpable lesion with inflammatory components. The NVX-207 was administered once a day on days 1, 2, 3, 10, 11, 12 and 13. Significant improvement (better than 80% reduction) was observed after one day, and additional improvement was observed after a total of six additional treatments applied within 14 days. […] A second identical lesion was treated with the same formulation twice a day for 2 days, and disappeared.

human skin = experiment: Tolerability of topical NVX-207 on human skin; type: in vivo; conditions: 1% topical solution (200 μl, 20% ethanol, 20% Tween 80 in water), human arm, once a day for one week; checked up to 6 months after
Protocol: A 1% topical solution of NVX-207 (200 μl total volume in 20% ethanol, 20% Tween® 80 in water) was topically applied to an area of skin on a human arm once a day for one week. A control solution (20% ethanol/20% Tween® 80 and 80% water) was applied to an area of skin adjacent to the area to which the NVX-207 solution was applied, also for one week.

MDA-MB-468 = experiment: Cell growth/survival, MDA-MB-468 breast cancer cells; type: cell-based; conditions: Homo sapiens, TP53 mut.
Protocol: as §1, with “liposarcoma. All breast cancer cells were routinely cultured in DMEM/F-12 or in DMEM alone supplemented with 10% FCS at 37° C. in a humidified 5% CO2 atmosphere. RD-ES and TC-71 sarcoma cell lines were maintained in RPMI 1640 (Biochrom KG, Berlin, Germany) containing 10% FCS at 37° C. in a humidified 5% CO2 atmosphere.” for “liposarcoma.”
as §2

Question: With `C=C(C)[C@@H]1CC[C@]2(C(=O)OCC(N)(CO)CO)CC[C@]3(C)[C@H](CC[C@@H]4[C@@]5(C)CC[C@H](OC(C)=O)C(C)(C)[C@@H]5CC[C@]43C)[C@@H]12` [NVX-207, 3-O-acetylbetulinic acid-2-amino-3-hydroxy-2-hydroxymethylpropyl ester] as the molecule, how does the “Efficacy on a molar basis in promoting cell death compared to betulinic acid” value [1] read?
Answer: up to 5 fold

Question: What about the IC50 (Hep-G2) of the same molecule?
Answer: 3300 nM

Question: And the IC50 (SW872 (liposarcoma))?
Answer: 1800 nM

Question: And the IC50 (Caco-2)?
Answer: 2700 nM

Question: What about the IC50 (HAT 1080 (fibrosarcoma)) of the same molecule?
Answer: 5600 nM

Question: What about the IC50 (SK-N-FI) of the same molecule?
Answer: 3700 nM

Question: And the IC50 (A549)?
Answer: 2500 nM

Question: What about the IC50 (SK-N-DZ) of the same molecule?
Answer: 2700 nM

Question: And the “Blood chemistry and hematology (blood status, mineral homoeostasis, liver and kidney functions)” value (pigs)?
Answer: did not reflect any systemic NVX-207-induced impact

Question: What about the “Histopathological changes in skin biopsies” value (pigs) of the same molecule?
Answer: No treatment-related histopathological changes were observed

Question: And the Macroscopic skin irritations (pigs; 2 weeks)?
Answer: No macroscopic NVX-207 related skin irritations were observed

Question: And the IC50 (MCF-7)?
Answer: 4000 nM

Question: And the Inflammation during treatment [2]?
Answer: absence of inflammation

Question: And the “Overall Survival” value (Soft tissue sarcoma)?
Answer: 15 months

Question: What about the IC50 (GOTO (autonomic ganglia)) of the same molecule?
Answer: 2000 nM

Question: And the “Deleterious (toxic) effects on the treated areas (inflammation, redness, swelling)” value [3]?
Answer: No deleterious (toxic) effects

Question: What about the “Improvement (reduction) of lesion” value ([3]; after one day) of the same molecule?
Answer: > 80%

Question: And the Side effects ([3]; first lesion)?
Answer: No reddening, inflammation or any other side effects were observed

Question: And the “Undesirable (toxic) effects on treated skin” value (human skin)?
Answer: no undesirable (toxic) effects

Question: What about the IC50 (MDA-MB-468) of the same molecule?
Answer: 3600 nM
